pIC50: −log10 of the molar value. Read-outs that look alike come from different tables or passages of the source.
Key:
[1] = system: Rana pipiens tadpoles; details: tadpole metamorphosis; cited from earlier work
[2] = system: E-ras 20 cells (E-ras transformed bovine endothelial cells); assay: Tumorigenicity of pretreated E-ras 20 cells in athymic nude mice; set-up: species or system bovine cells in nude mice; details: 10 μM pretreatment, no in vivo drug treatment
[3] = system: seven human cancer cell lines; assay: Cytocidal action on human cancer cell lines; assay type: cell-based
Procedure: (§1) Seven human cancer cell lines were obtained from the American Tissue Culture Collection (Rockville, Md.) and maintained in the recommended growth media. Cells were seeded into wells (2 cm^2) at a density of 2×10^4 cells/cm^2. Various concentrations of Compounds 1-13 were added to the media at the time of seeding.
(§2) The cultures were incubated for 72 hours at 37° C. (5% CO2 atmosphere). Following incubation, cells were detached with trypsin and counted in a hemocytometer.

[4] = system: mouse pituitary thyrotropic tumors / non-malignant mouse pituitary adenoma; details: cited from earlier work
[5] = system: MDA-MB-231 xenografts; assay: MDA-MB-231 xenograft growth in nude mice; assay type: in vivo, human tumor in nude mice; details: 250 mg/kg gavage, 5 days/week; control 979.0 ± 154; p = 0.01; in mm³ (unit assumed)
Procedure: MDA-MB-231 (human mammary cancer) cells were obtained from American Type Culture Collection (Rockville, Md.) and maintained in the recommended growth media. Twenty nude mice were each inoculated subcutaneously with MDA-MB-231 cells (10^6 cells/100 μL). To one group of ten mice, DIME was administered by gavage (250 mg/kg, 10 mL/kg in corn oil) once per day, 5 days per week, for a total of 32 days. The other (control) group of ten mice was given administered vehicle only according to the same dosing schedule. Tumors were measured twice weekly using a Vernier caliper, and the mean tumor volume was determined at each time point. Comparisons between groups were made using an unpaired, two-tailed t-test and the results were analyzed using analysis of variance.
Tumorigenicity of E-ras 20 Cells in athymic nude mice was assayed as described previously. Bauer et al., 1996, "Modification of growth related enzymatic pathways and apparent loss of tumorigenicity of a ras-transformed bovine endothelial cell line by treatment with 5-iodo-6-amino-1,2-benzopyrone (INH2 BP)" Intl. J. Oncol. 8:239-252. The in vivo antitumorigenic action of DIME was assayed on athymic mice inoculated with 10^6 MDA-MB-231 cells, as in the tumorgenicity assay. […]

[6] = system: biosynthetic pathways of DNA, RNA or proteins; assay: Metabolic action and biosynthetic pathways
[7] = system: HeLa (cervical cancer); assay: Cytocidal action/growth inhibition, HeLa; assay type: cell-based; details: Homo sapiens, 72 h
Procedure: as §1, §2
I100 designates the concentration at which no viable cells remained; I50 the concentration at which 50% viable cells remained, as compared to a control.
E-ras 20 cells were cultured as reported, Bauer et al., 1996, "Modification of growth related enzymatic pathways and apparent loss of tumorigenicity of a ras-transformed bovine endothelial cell line by treatment with 5-iodo-6-amino-1,2-benzopyrone (INH2 BP)" Intl. J. Oncol. 8:239-252; HT-144 (melanoma), DU-145 (prostatic cancer), HeLa (cervical cancer), HL 60 (promyelocytic leukemia), MDA-MB-231 (mammary cancer), SK-Br-3 (mammary cancer), T47D (ductal mammary cancer), A559 (lung cancer) were obtained from American Type Culture Collection (Rockville, Md.) and cultured in prescribed media. The effect of DIME was tested in cultures with a starting cell density of 2×10^4 cells per cm^2 and comparison of the effect of DIME on cell growth (intact cells identified by Trypan blue exclusion) was assayed by direct cell counting after trypsinization in a hemocytometer 72 hours after drug addition.
For DIME-exposure experiments cells were seeded into 2 cm^2 wells at a density of 2×10^4 cells/cm^2. DIME at various concentrations was added to the medium at the time of seeding. The cell cultures were then incubated for 3 days (37° C. in 5% at CO2 atmosphere).

[8] = system: MDA-MD-231 cells; assay: Inhibition of tumor cell growth; assay type: cell-based, human; details: 3 days, control 0.95
Procedure: MDA-MD-231 human cancer cells were obtained from the American Tissue Culture Collection (Rockville, Md.) and maintained in the recommended growth media. Cells were grown in the presence of various concentrations of Compounds 1 and 14 for 3 days at 37° C.

[9] = system: MDA-MB-231 cells; assay: Flow cytometry / M phase block; assay type: cell-based, human
Procedure: The MDA-MB-231 cell line was obtained from ATCC (Rockville, Md., USA) and cells were cultured in T-75 flasks at 37° C. in Minimum Essential Medium-alpha, supplemented with 10% FCS. In controls, not receiving DIME, 0.1 μg/ml colcemid was added to cultures for 4 hrs prior to the collection of metaphase-blocked cells and preparation of cell spreads. […] Cells (10^7) were isolated from T-75 trypsinization for 5 min with 0.025% trypsin, and sedimented by centrifugation, resuspended and kept in 10 ml of 75 mM KC1 at 37° C. for 10 min, resedimented, and fixed in 10 ml methanol-acetic acid, with four successive changes of methanol-acetic acid. An aliquot of the final cell suspension (100 μl) was dropped on ethanol-cleaned slides and air-dried.
Cells exposed to different treatments were grown to confluence, trypsinized, and washed with phosphate buffered saline (PBS). For nuclear analysis, cells were fixed in Vindelov Citrate cell buffer: sucrose 250 mM, trisodium citrate. 2H20 40 mM, DMSO 50 ml in 1000 ml solution, pH 7.6. Normal human lymphocytes obtained from blood were used as controls. Each cell sample and control was counted with a hemacytometer and the cell concentration was adjusted to 2×10^6 cells/ml. Two million cells from each cell line in a total volume of 2 ml were washed twice with fresh PBS, treated with 200 μg/ml RNAase at 37° C. for 30 min, and stained with 10 μg/ml propidium iodide for 45 min. Flow cytometric analysis was performed on a FACScan benchtop flow cytometer (Becton-Dickinson, San Jose, Calif., USA) equipped with an air-cooled argon laser tuned to 488 nm. Twenty thousand events were collected as six parameter list mode data for analysis and archival storage. Two light scatter parameters (forward and side), propidium iodide fluorescence measured at 575/26 nm and above 620 nm, and doublet discrimination by fluorescence pulse width and area were acquired at 1024 data channel resolution. Acquisition threshold was set on propidium iodide positive events above channel 100. Gating to exclude small debris, large clumps and cell doublets was done post acquisition.

Compound: COC(=O)c1cc(I)c(Oc2ccc(OC)cc2)c(I)c1 [Compound 1, Methyl 3,5-diiodo-4-(4'-methoxyphenoxy)benzoate]
- metamorphosis / cell differentiating activity [1]: no significant metabolic or cell differentiating activity
- tumor appearance after 3 months [2]: Tumors did not appear even after 3 months
- cytocidal action ([3]; 72 hours): maximally active
- activity in cellular assays and in vivo ([3]; cellular assays and in vivo): highly active
- growth of mouse pituitary tumor [4]: no inhibitory activity
- Tumor Volume Day 28 ± SEM [5]: 430 ± 85.6
- inhibition of biosynthetic pathways of DNA, RNA or proteins [6]: nor does it inhibit the biosynthetic pathways of DNA, RNA or proteins
- metabolic action [6]: no metabolic action
- pIC50 ([7]; Table 4, read-out: I50): 6.22
- IC100 ([7]; Table 4, read-out: I100 (no viable cells remained)): 3.5 µM
- pIC50 ([7]; day 3, Table 11, read-out: I50 (day 3)): 6.22
- Cells (growth) ([8]; 0.5 μM): 0.20 ×10^6
- Cells (growth) ([8]; 1.0 μM): 0.10 ×10^6
- Cells (growth) ([8]; 2.0 μM): 0.09 ×10^6
- M phase block (nuclei with G2 content of DNA) ([9]; 18 hrs of drug exposure): nuclei with a G2 content of DNA had accumulated, indicating M phase block
- cell cycle block in M phase, comparison of DIME and colcemid ([9]; colcemid 0.1 μg/ml, 4 hrs): indistinguishable with respect to the cell cycle block in M phase
